Tested on: human lung cancer NCI-H1975 subcutaneous xenograft tumor
Experiment: NCI-H1975 subcutaneous xenograft tumor BALB/c nude mouse model
Format: in vivo, BALB/c nude mice
Method: Human lung cancer NCI-H1975 cells were cultured in vitro in a monolayer under the conditions of 1640 medium with 10% fetal bovine serum, 1% double antibodies and incubated at 37° C. in a 5% CO2 incubator. Routine treatment passages were performed twice a week. When the cell saturation was 80%-90% and the number reached the required level, the cells were collected, counted, and inoculated.
BALB/c nude mice, female, 6-8 weeks old, weighing 18-22 g. Provided by Shanghai Xipuer-Bikai Laboratory Animal Co., Ltd. or other qualified suppliers.
Tumor tissue was collected from H1975 tumor-bearing mice of human lung cancer xenograft model, cut into 2-3 mm diameter tumor blocks and inoculated subcutaneously at the right anterior scapula of Balb/c nude mice. When the average tumor volume was 145 mm^3, the tumors were randomly grouped according to their size, and the day of grouping was defined as day 0.
The experimental index was to examine whether tumor growth was inhibited, delayed or cured. Tumor diameters were measured with vernier calipers twice a week. The calculation formula of tumor volume was: V=0.5a×b^2, wherein a and b represented the long and short diameters of the tumor, respectively. The antitumor efficacy of the compounds was evaluated by TGI (%) or relative tumor proliferation rate T/C (%). TGI (%), reflecting the tumor growth inhibition rate. Calculation of TGI (%): TGI (%)=[(1−(average tumor volume at the end of administration of a treatment group−average tumor volume at the beginning of administration of this treatment group))/(average tumor volume at the end of treatment in the solvent control group−average tumor volume at the beginning of treatment of the solvent control group)]×100%. Relative tumor proliferation rate T/C (%): The calculation formula was as follows: T/C %=TRTV/CRTV×100% (TRTV: RTV in the treatment group; CRTV: RTV in the negative control group). The relative tumor volume (RTV) was calculated according to the results of tumor measurement, and the formula was RTV=Vt/V0, wherein V0 was the average tumor volume measured at the time of group administration (i.e., d0), and Vt was the average tumor volume at a certain measurement, TRTV and CRTV were taken on the same day. After the experiment, the tumor weight will be detected, and the percentage of T/Cweight will be calculated. Tweight and Cweight represented the tumor weight of the administration group and the solvent control group, respectively.

C=CC(=O)Nc1cc(Nc2ncc(C(=O)OC(C)C)c(-c3cn(OC)c4ccccc34)n2)c(OC)cc1N(C)CCN(C)C.CS(=O)(=O)O [Compound 1]
Tumor volume (Day 0) (Day 0 (grouping), mean ± standard error, n = 6): 153 ± 7 mm^3 | RTV (Day 20): 0.20 ± 0.10 | T/C (Day 20): 1.35% | TGI (Day 20): 105.3% | Tumor volume (Day 20) (Day 20, mean ± standard error, n = 6): 33 ± 16 mm^3

Reference: patent publication US11530196B2, “Pyrimidine compound acting on EGFR and ERBB2” (CHINA RESOURCES PHARMACEUTICAL HOLDINGS COMPANY LIMITED, priority 2019, dated 2022)
